Where a name gives a salt, the structure may show the parent alone. Read-outs that look alike come from different tables or passages of the source. Residues, ends and D or L forms follow the SMILES beside them. *: point of attachment. Cbz = O=C(OCc1ccccc1)*
Target: AaDOP2 (Aedes aegypti, UniProt H6D5H2)
Test: AaDOP2 antagonist screen of the LOPAC1280 library (HEK-CRELuc-Aadop2 cells, luminescence)
Type: cell-based
Settings: for inhibition at 10 µM: read-out: % of the SCH23390 effect (percent inhibition of receptor response relative to the SCH23390 control)
[1] = 10 µM compound, 300 nM dopamine, 2 hr, hit = compound effect <20

AaDOP2, sequence (H6D5H2 1-476): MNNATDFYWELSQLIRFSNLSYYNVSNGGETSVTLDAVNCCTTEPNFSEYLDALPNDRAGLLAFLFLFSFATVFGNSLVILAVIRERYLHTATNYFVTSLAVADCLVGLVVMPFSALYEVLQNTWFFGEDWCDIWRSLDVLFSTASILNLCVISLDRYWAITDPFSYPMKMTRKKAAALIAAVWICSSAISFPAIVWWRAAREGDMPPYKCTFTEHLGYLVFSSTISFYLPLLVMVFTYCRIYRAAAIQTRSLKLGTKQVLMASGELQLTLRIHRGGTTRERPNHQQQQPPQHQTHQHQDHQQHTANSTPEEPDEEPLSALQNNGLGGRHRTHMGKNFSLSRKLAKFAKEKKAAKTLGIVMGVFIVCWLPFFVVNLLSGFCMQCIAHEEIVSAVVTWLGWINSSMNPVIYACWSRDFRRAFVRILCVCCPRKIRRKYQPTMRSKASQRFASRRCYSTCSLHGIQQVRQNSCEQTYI

SMILES	Compound effect (percent receptor signaling in presence of test compound, relative lux units relative to the SCH23390 control)	also measured
COc1ccc(OC)c(C(O)C(C)N)c1 (stereo not shown) [Compound 789, Methoxamine hydrochloride]	92	
O=C1c2c(O)ccc(O)c2C(=O)c2c(NCCNCCO)ccc(NCCNCCO)c21 [Compound 790, Mitoxantrone]	18	inhibition at 10 µM: 83%
COc1ccc2[nH]cc(CCN)c2c1.Cl [Compound 791, O-Methylserotonin hydrochloride]	118	
C[Se]C[C@H](N)C(=O)O.Cl [Compound 792, Se-(methyl)selenocysteine hydrochloride]	129	
CC(C)[C@H](NC(=O)OCc1ccccc1)C(=O)N[C@H](C=O)Cc1ccccc1 [Compound 793, MDL 28170] (Cbz-Val-Phe-aldehyde)	96	
[H]/N=C(/NC)NCCC[C@H](N)C(=O)O [Compound 795, NG-Monomethyl-L-arginine acetate]	94	
CN1CC[C@]2(CCN3CCc4c(oc5ccccc45)[C@@H]3C2)N(C)C1=O [Compound 796, MK-912]	73	
Cc1nc(N=Nc2ccc(C(=O)O)cc2)c(COP(=O)(O)O)c(C=O)c1O [Compound 798, MRS 2159]	91	
COc1ccc(NC(=O)c2ccc(-c3ccc(-c4noc(C)n4)cc3C)cc2)cc1N1CCN(C)CC1.Cl [Compound 799, GR 127935 hydrochloride]		Compound effect (percent receptor signaling in presence of test compound, relative lux units relative to the SCH23390 control) [1]: 90%
NC(=O)COc1c(F)cc(SCCNS(=O)(=O)c2ccccc2)cc1F [Compound 800, 2,6-Difluoro-4-[2-(phenylsulfonylamino)ethylthio]phenoxyacetamide]	89	
CC#C[C@]1(O)CC[C@H]2[C@@H]3CCC4=CC(=O)CCC4=C3[C@@H](c3ccc(N(C)C)cc3)C[C@@]21C [Compound 801, Mifepristone]	94	
C[C@](N)(Cc1ccc(O)cc1)C(=O)O [Compound 802, L-alpha-Methyl-p-tyrosine]	100	
CCOC(=O)C1=C(C)NC(=S)NC1c1cccc(O)c1 (stereo not shown) [Compound 803, Monastrol]	103	
Cn1ccnc1 [Compound 804, 1-Methylimidazole]	100	
CNC1(C)C2CCC(C2)C1(C)C (stereo not shown) [Compound 805, Mecamylamine hydrochloride]	114	
CC12CC3CC(C)(C1)CC(N)(C3)C2 [Compound 807, Memantine hydrochloride]	91	
CN(N=O)c1ccc(O)c(O)c1 [Compound 808, Me-3,4-dephostatin]	101	
CN(C)c1ccc(O)c2c1C[C@H]1C[C@H]3[C@H](N(C)C)C(O)=C(C(N)=O)C(=O)[C@@]3(O)C(O)=C1C2=O [Compound 809, Minocycline hydrochloride]	94	
CNCCNS(=O)(=O)c1cccc2cnccc12.Cl.Cl [Compound 811, H-8 dihydrochloride]		Compound effect (percent receptor signaling in presence of test compound, relative lux units relative to the SCH23390 control) [1]: 43%
CCCN(CCC)C(=O)C(CCC(=O)O)NC(=O)c1ccccc1 (stereo not shown) [Compound 812, Proglumide]	97	
COc1ccccc1CNCCCCCCNCCCCCCCCNCCCCCCNCc1ccccc1OC [Compound 815, Methoctramine tetrahydrochloride]	66	
C[C@@]12N[C@@H](Cc3ccccc31)c1ccccc12.O=C(O)/C=C\C(=O)O [Compound 817, (-)-MK-801 hydrogen maleate]	98	
Cc1[nH]c2ccc(O)cc2c1CCN.O=C(O)/C=C\C(=O)O [Compound 818, 2-Methyl-5-hydroxytryptamine maleate]	102	
CC(N)Cc1c[nH]c2ccc(O)cc12.O=C(O)/C=C\C(=O)O (stereo not drawn) [Compound 819, alpha-Methyl-5-hydroxytryptamine maleate]	92	
Cc1ccccc1N1C(=O)c2cc(S(N)(=O)=O)c(Cl)cc2NC1C (stereo not shown) [Compound 820, Metolazone]	90	

SMILES	Compound effect (percent receptor signaling in presence of test compound, relative lux units relative to the SCH23390 control)	also measured
S=C=Nc1cccc(C2(N3CCCCC3)CCCCC2)c1 [Compound 821, Metaphit methanesulfonate]	93	
C[C@](N)(Cc1ccc(O)c(O)c1)C(=O)O [Compound 822, L-alpha-Methyl DOPA]		Compound effect (percent receptor signaling in presence of test compound, relative lux units relative to the SCH23390 control) [1]: 98%
CC[C@@H](CO)NC(=O)[C@@H]1C=C2c3cccc4c3c(cn4C)C[C@H]2N(C)C1 [Compound 823, Methysergide maleate]	82	
CNC(=O)OCC[N+](C)(C)C [Compound 824, Methylcarbamylcholine chloride]	103	
CSc1ccc2c(c1)C(N1CCN(C)CC1)Cc1ccccc1S2 (stereo not shown) [Compound 825, Methiothepin mesylate]	1	inhibition at 10 µM: 99%
CN1C[C@@H](NS(=O)(=O)N(C)C)C[C@@H]2c3cccc4c3c(cn4C)C[C@H]21 [Compound 827, Mesulergine hydrochloride]	88	
CC(C)N(CCC(=O)c1ccc2ccccc2c1)Cc1ccccc1.Cl [Compound 829, ZM 39923 hydrochloride]		Compound effect (percent receptor signaling in presence of test compound, relative lux units relative to the SCH23390 control) [1]: 83%
Cl.N=c1c[n+](N2CCOCC2)[n-]o1 [Compound 830, 3-Morpholinosydnonimine hydrochloride]	90	
COc1ccc2c(c1)[C@@]13CCCC[C@H]1[C@@H](C2)NCC3.Cl [Compound 831, 3-Methoxy-morphanin hydrochloride]	94	
COc1ccccc1N1CCN(CCN(C(=O)c2ccc(I)cc2)c2ccccn2)CC1.Cl [Compound 832, p-MPPI hydrochloride]		Compound effect (percent receptor signaling in presence of test compound, relative lux units relative to the SCH23390 control) [1]: 73%
O=C(O)/C(=C/c1c(C(=O)O)[nH]c2cc(Cl)cc(Cl)c12)c1ccccc1 [Compound 833, MDL 105,519]	83	
Cc1ccccc1CNc1ncnc2c1ncn2[C@@H]1O[C@H](CO)[C@@H](O)[C@H]1O [Compound 834, Metrifudil]	96	
COc1ccccc1N1CCN(CCN(C(=O)c2ccc(F)cc2)c2ccccn2)CC1.Cl.Cl [Compound 835, p-MPPF dihydrochloride]		Compound effect (percent receptor signaling in presence of test compound, relative lux units relative to the SCH23390 control) [1]: 81%
O=C(O)c1cccnc1Nc1cccc(C(F)(F)F)c1 [Compound 837, Niflumic acid]	90	
CS(=O)(=O)Nc1ccc([N+](=O)[O-])cc1Oc1ccccc1 [Compound 838, Nimesulide]	88	
O=C(CCNNC(=O)c1ccncc1)NCc1ccccc1 [Compound 839, Nialamide]	87	
CN1Cc2c(N)cccc2C(c2ccccc2)C1 (stereo not shown) [Compound 840, Nomifensine maleate]	42	
Cl.Cl.Oc1ccc2c3c1O[C@H]1c4[nH]c5c(c4C[C@@]4(O)[C@@H](C2)N(CC2CC2)CC[C@]314)C[C@@]1(O)[C@H]2Cc3ccc(O)c4c3[C@@]1(CCN2CC1CC1)[C@H]5O4 [Compound 841, nor-Binaltorphimine dihydrochloride]	98	
CN(C)C(=O)Oc1cccc([N+](C)(C)C)c1 [Compound 842, Neostigmine bromide]	100	
CC1(C)CCC(NC(=O)[C@@H](N)CCC(=O)O)CC1 [Compound 843, CR 2249]	92	
O=[N+]([O-])c1ccc(CSc2ncnc3c2ncn3[C@@H]2O[C@H](CO)[C@@H](O)[C@H]2O)cc1 [Compound 844, S-(4-Nitrobenzyl)-6-thioinosine]	93	
O=C1CC[C@@]2(O)[C@H]3Cc4ccc(O)c5c4[C@@]2(CCN3CC2CC2)[C@H]1O5 [Compound 845, Naltrexone hydrochloride]	101	
Br.COc1ccccc1N1CCN(CCCCN2C(=O)c3ccccc3C2=O)CC1 [Compound 848, NAN-190 hydrobromide]		Compound effect (percent receptor signaling in presence of test compound, relative lux units relative to the SCH23390 control) [1]: 42%
N[C@@H](CCC(=O)N[C@@H](CSN=O)C(=O)NCC(=O)O)C(=O)O [Compound 850, S-Nitrosoglutathione]	100	
O=C(O)/C=C1\CCCc2ccccc2C1O (stereo not shown) [Compound 851, NCS-382]	97	

Reference: paper PMC3265452 (PLoS Neglected Tropical Diseases, 2012)
